According to patent publication US20120270844A1, “METHODS FOR TREATING ALZHEIMER'S DISEASE” (aFRAXis, Inc., priority 2009, published 2012):
pIC50: −log10 of the molar value.

Experiments:
Type in all cases: biochemical
PAK1 = PAK1 (Homo sapiens, UniProt Q13153); experiment: Z'Lyte fluorescence-based (FRET) PAK kinase assay, PAK1; details: 50 μM ATP
Description: (§1) A fluorescence-based assay format is used to determine IC50 values of test compounds in vitro. Purified PAK kinase is incubated with ATP, and a test compound at various concentrations and a substrate peptide containing two fluorophores. In a second step, the reaction mix is incubated with a site-specific protease that cleaves non-phosphorylated bat not phosphorylated substrate peptide, disrupting the FRET signal generated by the two fluorophores in the cleaved peptide (Z′Lyte™ Kinase assay platform; Life Technologies).
(§2) Reagents: 50 mM HEPES, pH 7.5; 0.01% BRIJ-35; 10 nM MgCl1; 1 mM EGTA, 2 uM substrate peptide Ser/Thr20 (proprietary Life Technologies Sequence), PAK enzyme [2.42-30.8 ng for PAK1, 0.29-6 ng for PAK2, 1.5-20 ng for PAK3 and 0.1-0.86 ng for PAK4; actual enzyme amounts depend on lot activity of the enzyme preparation]
(§3) Test compounds are dissolved in DMSO at various concentrations; the final DMSO concentration in the assay reaction is 1%.
(§4) ATP concentration at Kin apparent is used in the assay [50 ┌M ATP for PAK1 assay, 75 ┌M ATP for PAK2 assay, 100 μM ATP for PAK3 assay, 5 μM ATP for PAK4 assay] in a total assay volume of 10 μl. Assay reactions are incubated at room temperature for 1 hr. Following the kinase reaction, 5 μl of 1:256 dilution of development solution A (Life Technologies) is added and the reaction mix is incubated for an additional 1 hr at room temperature.
(§5) Plates are analyzed in a standard fluorescence plate reader (Tecan or equivalent) using an excitation wavelength of 400 nn and emission wavelengths of 445 nm and 520 nm.
(§6) Inhibition of kinase reaction is determined by emission ratio=emission@445 nm/emission@520 nm
as §1, with “non-phosphorylated but” for “non-phosphorylated bat”, “peptide (Z'Lyte™” for “peptide (Z′Lyte™”, “assay platform” for “assay platform;”
as §2, with “mM MgCl2;” for “nM MgCl1;”
as §4, with “at Km” for “at Kin”, “[50 μMATP” for “[50 ┌M ATP”, “75 µM” for “75 ┌M”, “[…]” for “10 μl.”, “kinase reaction.” for “kinase reaction,”, “[…]” for “5 μl”
(§7) Plates are analyzed in a standard fluorescence plate reader (Teem or equivalent) using an excitation wavelength of 400 nm and emission wavelengths of 445 nm and 520 nm.

PAK2 = PAK2 (Homo sapiens, UniProt Q13177); experiment: Z'Lyte fluorescence-based (FRET) PAK kinase assay, PAK2; details: Table 1 of Example 100; 75 μM ATP
Description: as §1, §2, §3, §4, §5, §6
as §1, with “non-phosphorylated but” for “non-phosphorylated bat”, “peptide (Z'Lyte™” for “peptide (Z′Lyte™”, “assay platform” for “assay platform;”
as §2, with “mM MgCl2;” for “nM MgCl1;”
as §4, with “at Km” for “at Kin”, “[50 μMATP” for “[50 ┌M ATP”, “75 µM” for “75 ┌M”, “[…]” for “10 μl.”, “kinase reaction.” for “kinase reaction,”, “[…]” for “5 μl”
as §7

PAK4 = PAK4 (Homo sapiens, UniProt O96013); experiment: Z'Lyte fluorescence-based (FRET) PAK kinase assay, PAK4; details: 5 μM ATP
Description: as §1, §2, §3, §4, §5, §6
as §1, with “non-phosphorylated but” for “non-phosphorylated bat”, “peptide (Z'Lyte™” for “peptide (Z′Lyte™”, “assay platform” for “assay platform;”
as §2, with “mM MgCl2;” for “nM MgCl1;”
as §4, with “at Km” for “at Kin”, “[50 μMATP” for “[50 ┌M ATP”, “75 µM” for “75 ┌M”, “[…]” for “10 μl.”, “kinase reaction.” for “kinase reaction,”, “[…]” for “5 μl”
as §7

[1] = Table 1 of Example 29 (own compound numbering)

Chain of PAK1 (Q13153 whole entry): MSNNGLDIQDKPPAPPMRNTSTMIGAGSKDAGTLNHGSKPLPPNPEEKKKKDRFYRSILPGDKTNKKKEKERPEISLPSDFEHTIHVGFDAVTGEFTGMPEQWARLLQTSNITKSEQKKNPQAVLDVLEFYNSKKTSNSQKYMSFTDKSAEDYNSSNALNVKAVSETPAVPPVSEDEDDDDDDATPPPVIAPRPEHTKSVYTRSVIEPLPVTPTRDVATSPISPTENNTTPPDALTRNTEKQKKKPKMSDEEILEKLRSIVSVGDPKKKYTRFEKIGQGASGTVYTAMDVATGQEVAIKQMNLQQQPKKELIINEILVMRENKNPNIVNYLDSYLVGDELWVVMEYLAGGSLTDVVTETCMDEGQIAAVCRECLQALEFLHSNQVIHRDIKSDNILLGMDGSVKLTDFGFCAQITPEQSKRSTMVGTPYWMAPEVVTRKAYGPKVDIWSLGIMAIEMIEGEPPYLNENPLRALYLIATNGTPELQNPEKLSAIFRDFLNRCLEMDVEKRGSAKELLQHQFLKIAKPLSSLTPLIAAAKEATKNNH
Chain of PAK4 (O96013 whole entry): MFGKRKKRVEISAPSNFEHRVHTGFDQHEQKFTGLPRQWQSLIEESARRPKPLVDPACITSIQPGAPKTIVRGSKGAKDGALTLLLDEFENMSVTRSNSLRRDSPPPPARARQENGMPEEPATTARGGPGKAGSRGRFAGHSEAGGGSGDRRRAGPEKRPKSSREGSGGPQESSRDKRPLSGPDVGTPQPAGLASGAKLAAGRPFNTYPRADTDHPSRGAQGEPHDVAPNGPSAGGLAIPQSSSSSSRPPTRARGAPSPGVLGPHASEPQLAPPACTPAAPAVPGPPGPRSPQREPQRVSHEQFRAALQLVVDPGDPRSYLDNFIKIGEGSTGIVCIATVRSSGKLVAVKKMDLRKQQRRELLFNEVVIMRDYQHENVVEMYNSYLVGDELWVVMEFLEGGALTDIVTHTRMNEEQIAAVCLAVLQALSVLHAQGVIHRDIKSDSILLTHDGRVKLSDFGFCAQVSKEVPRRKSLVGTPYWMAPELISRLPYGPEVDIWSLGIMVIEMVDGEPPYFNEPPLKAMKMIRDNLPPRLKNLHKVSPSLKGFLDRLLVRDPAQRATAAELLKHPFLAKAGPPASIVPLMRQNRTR
Chain of PAK2 (Q13177 whole entry): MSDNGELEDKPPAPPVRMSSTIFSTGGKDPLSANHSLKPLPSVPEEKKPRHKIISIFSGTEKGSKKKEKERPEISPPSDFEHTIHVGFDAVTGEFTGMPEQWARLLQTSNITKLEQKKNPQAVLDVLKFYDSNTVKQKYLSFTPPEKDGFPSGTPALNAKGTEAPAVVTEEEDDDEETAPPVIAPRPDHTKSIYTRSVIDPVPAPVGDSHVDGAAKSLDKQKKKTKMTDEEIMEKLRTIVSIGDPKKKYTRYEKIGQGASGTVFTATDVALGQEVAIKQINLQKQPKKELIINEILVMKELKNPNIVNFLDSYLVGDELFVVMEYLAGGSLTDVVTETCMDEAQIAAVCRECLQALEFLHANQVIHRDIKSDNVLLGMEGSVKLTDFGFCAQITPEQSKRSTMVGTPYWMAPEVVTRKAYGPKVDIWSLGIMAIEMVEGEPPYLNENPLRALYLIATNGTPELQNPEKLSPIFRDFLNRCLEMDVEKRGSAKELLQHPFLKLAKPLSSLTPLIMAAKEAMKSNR

Compound | pIC50 (PAK1; Table 1 of Example 100) | pIC50 (PAK2) | pIC50 (PAK4; Table 1 of Example 100) | pIC50 (PAK1; [1]) | pIC50 (PAK4; [1])
O=c1ccc2cnc(Nc3ccc(N4CCOCC4)cc3)nc2n1C1CCCC1 [Compound 2] | < 5.00 | < 5.00 | 5.00 to 6.00 | – | –
CN(C)c1ccc(Nc2ncc3ccc(=O)n(C4CCCC4)c3n2)cc1 [Compound 3] | < 5.00 | < 5.00 | 5.00 to 6.00 | – | –
CN(C)CCNc1ccc(Nc2ncc3ccc(=O)n(C4CCCC4)c3n2)cc1 [Compound 4] | 5.00 to 6.00 | 5.00 to 6.00 | 5.00 to 6.00 | – | –
CN1CCN(c2ccc(Nc3ncc4ccc(=O)n(Cc5ccccc5)c4n3)cc2)CC1 [Compound 26] | – | 5.00 to 6.00 | – | – | –
CN1CCN(c2ccc(Nc3ncc4ccc(=O)n(Cc5cccc(F)c5)c4n3)cc2)CC1 [Compound 27] | 5.00 to 6.00 | 5.00 to 6.00 | 5.00 to 6.00 | – | –
CN1CCN(c2ccc(Nc3ncc4ccc(=O)n(Cc5ccc(F)cc5)c4n3)cc2)CC1 [Compound 28] | 5.00 to 6.00 | < 5.00 | < 5.00 | – | –
COc1ccc(Cn2c(=O)ccc3cnc(Nc4ccc(N5CCN(C)CC5)cc4)nc32)cc1 [Compound 29] | < 5.00 | < 5.00 | < 5.00 | – | –
CN1CCN(c2ccc(Nc3ncc4ccc(=O)n(Cc5ccc(Cl)cc5)c4n3)cc2)CC1 [Compound 30] | 5.00 to 6.00 | < 5.00 | < 5.00 | – | –
CN1CCN(c2ccc(Nc3ncc4ccc(=O)n(Cc5ccccc5Cl)c4n3)cc2)CC1 [Compound 31] | > 6.00 | > 6.00 | 5.00 to 6.00 | – | –
COc1cccc(Cn2c(=O)ccc3cnc(Nc4ccc(N5CCN(C)CC5)cc4)nc32)c1 [Compound 33] | 5.00 to 6.00 | < 5.00 | < 5.00 | – | –
COc1ccccc1Cn1c(=O)ccc2cnc(Nc3ccc(N4CCN(C)CC4)cc3)nc21 [Compound 34] | > 6.00 | 5.00 to 6.00 | 5.00 to 6.00 | – | –
CN1CCN(c2ccc(Nc3ncc4ccc(=O)n(Cc5ccccc5F)c4n3)cc2)CC1 [Compound 35] | 5.00 to 6.00 | 5.00 to 6.00 | 5.00 to 6.00 | – | –
CN1CCN(c2ccc(Nc3ncc4ccc(=O)n(Cc5ccccn5)c4n3)cc2)CC1 [Compound 36] | 5.00 to 6.00 | < 5.00 | 5.00 to 6.00 | – | –
CN1CCN(c2ccc(Nc3ncc4ccc(=O)n(Cc5ccncc5)c4n3)cc2)CC1 [Compound 37] | 5.00 to 6.00 | < 5.00 | < 5.00 | – | –
CN1CCN(c2ccc(Nc3ncc4ccc(=O)n(Cc5cccnc5)c4n3)cc2)CC1 [Compound 38] | 5.00 to 6.00 | < 5.00 | < 5.00 | – | –
CN1CCN(c2ccc(Nc3ncc4ccc(=O)n(C5CCCC5)c4n3)cc2)CC1 [compound 57] | – | – | – | > 6.00 | 5.00 to 6.00
O=c1ccc2cnc(Nc3ccc(N4CCOCC4)cc3)nc2n1C1CCCC1 [compound 58] | – | – | – | < 5.00 | 5.00 to 6.00
CN(C)c1ccc(Nc2ncc3ccc(=O)n(C4CCCC4)c3n2)cc1 [compound 59] | – | – | – | < 5.00 | 5.00 to 6.00
CN(C)CCNc1ccc(Nc2ncc3ccc(=O)n(C4CCCC4)c3n2)cc1 [compound 60] | – | – | – | 5.00 to 6.00 | 5.00 to 6.00
CN1CCN(c2ccc(Nc3ncc4ccc(=O)n(C5CCc6ccccc65)c4n3)cc2)CC1 (centres unmarked) [compound 62] | – | – | – | > 6.00 | 5.00 to 6.00
O=c1ccc2cnc(Nc3ccc(NC4CCCNC4)cc3)nc2n1Cc1ccccc1C(F)(F)F (centres unmarked) [compound 63] | – | – | – | > 6.00 | > 6.00

Now from value to molecule:

pIC50 (PAK1; Table 1 of Example 100) | pIC50 (PAK2) | pIC50 (PAK4; Table 1 of Example 100) | pIC50 (PAK1; [1]) | pIC50 (PAK4; [1]) | Compound
– | – | – | > 6.00 | > 6.00 | O=c1ccc2cnc(Nc3ccc(NC4CCNCC4)cc3)nc2n1Cc1ccccc1C(F)(F)F [compound 64]
– | – | – | 5.00 to 6.00 | 5.00 to 6.00 | CN1CCN(c2ccc(Nc3ncc4ccc(=O)n([C@@H]5CCCc6ccccc65)c4n3)cc2)CC1 [compound 66]
– | – | – | > 6.00 | 5.00 to 6.00 | CN1CCN(c2ccc(Nc3ncc4ccc(=O)n(C5CCCc6ccccc65)c4n3)cc2)CC1 (centres unmarked) [compound 67]
– | – | – | > 6.00 | > 6.00 | O=c1ccc2cnc(Nc3ccc(OC4CCNCC4)cc3)nc2n1Cc1ccccc1C(F)(F)F [compound 68]
– | – | – | > 6.00 | > 6.00 | O=c1ccc2cnc(Nc3ccc(OC4CCCNC4)cc3)nc2n1Cc1ccccc1C(F)(F)F (centres unmarked) [compound 70]
– | – | – | 5.00 to 6.00 | 5.00 to 6.00 | CN1CCN(c2ccc(Nc3ncc4ccc(=O)n(C5CCOc6ccccc65)c4n3)cc2)CC1 (centres unmarked) [compound 71]
– | – | – | < 5.00 | < 5.00 | CN(C)CC(c1ccccc1)n1c(=O)ccc2cnc(Nc3ccc(N4CCOCC4)cc3)nc21 (centres unmarked) [compound 72]
– | – | – | > 6.00 | > 6.00 | CN1CCN(c2ccc(Nc3ncc4ccc(=O)n(C5Cc6ccccc6C5)c4n3)cc2)CC1 [compound 73]
– | – | – | > 6.00 | > 6.00 | CN1CCN(c2ccc(Nc3ncc4ccc(=O)n(C5CCc6ccccc6C5)c4n3)cc2)CC1 (centres unmarked) [compound 74]
– | – | – | < 5.00 | < 5.00 | CN(C)CC(c1ccccc1)n1c(=O)ccc2cnc(Nc3ccc(N4CCN(C)CC4)cc3)nc21 (centres unmarked) [compound 75]
– | – | – | > 6.00 | > 6.00 | O=c1ccc2cnc(Nc3ccc(N4CCNCC4)c(F)c3)nc2n1C1Cc2ccccc2C1 [compound 77]
– | – | – | > 6.00 | > 6.00 | O=c1ccc2cnc(Nc3ccc(N4CCNCC4)c(F)c3)nc2n1C1CCc2ccccc2C1 (centres unmarked) [compound 78]
– | – | – | 5.00 to 6.00 | < 5.00 | CN1CCN(c2ccc(Nc3ncc4ccc(=O)n(Cc5ccc(F)cc5)c4n3)cc2)CC1 [compound 82]
– | – | – | < 5.00 | < 5.00 | COc1ccc(Cn2c(=O)ccc3cnc(Nc4ccc(N5CCN(C)CC5)cc4)nc32)cc1 [compound 83]
– | – | – | 5.00 to 6.00 | < 5.00 | CN1CCN(c2ccc(Nc3ncc4ccc(=O)n(Cc5ccc(Cl)cc5)c4n3)cc2)CC1 [compound 84]
– | – | – | > 6.00 | 5.00 to 6.00 | CN1CCN(c2ccc(Nc3ncc4ccc(=O)n(Cc5ccccc5Cl)c4n3)cc2)CC1 [compound 85]
– | – | – | > 6.00 | 5.00 to 6.00 | COc1ccccc1Cn1c(=O)ccc2cnc(Nc3ccc(N4CCN(C)CC4)cc3)nc21 [compound 88]
– | – | – | 5.00 to 6.00 | 5.00 to 6.00 | CN1CCN(c2ccc(Nc3ncc4ccc(=O)n(Cc5ccccc5F)c4n3)cc2)CC1 [compound 89]
– | – | – | 5.00 to 6.00 | 5.00 to 6.00 | CN1CCN(c2ccc(Nc3ncc4ccc(=O)n(Cc5ccccn5)c4n3)cc2)CC1 [compound 90]
– | – | – | 5.00 to 6.00 | < 5.00 | CN1CCN(c2ccc(Nc3ncc4ccc(=O)n(Cc5ccncc5)c4n3)cc2)CC1 [compound 91]
– | – | – | 5.00 to 6.00 | < 5.00 | CN1CCN(c2ccc(Nc3ncc4ccc(=O)n(Cc5cccnc5)c4n3)cc2)CC1 [compound 92]
– | – | – | – | 5.00 to 6.00 | Cc1ccccc1Cn1c(=O)ccc2cnc(Nc3ccc(N4CCN(C)CC4)cc3)nc21 [compound 93]
– | – | – | > 6.00 | 5.00 to 6.00 | CN1CCN(c2ccc(Nc3ncc4ccc(=O)n(Cc5ccccc5C#N)c4n3)cc2)CC1 [compound 94]
– | – | – | > 6.00 | 5.00 to 6.00 | CN1CCN(c2ccc(Nc3ncc4ccc(=O)n(Cc5ccccc5OC(F)(F)F)c4n3)cc2)CC1 [compound 95]
– | – | – | > 6.00 | > 6.00 | CN1CCN(c2ccc(Nc3ncc4ccc(=O)n(Cc5ccccc5C(F)(F)F)c4n3)cc2)CC1 [compound 96]
– | – | – | > 6.00 | > 6.00 | CN1CCN(c2ccc(Nc3ncc4ccc(=O)n(Cc5ccccc5OC(F)F)c4n3)cc2)CC1 [compound 98]
– | – | – | 5.00 to 6.00 | 5.00 to 6.00 | Cc1cc(F)ccc1Cn1c(=O)ccc2cnc(Nc3ccc(N4CCN(C)CC4)cc3)nc21 [compound 99]
– | – | – | 5.00 to 6.00 | 5.00 to 6.00 | Cc1ccc(C)c(Cn2c(=O)ccc3cnc(Nc4ccc(N5CCN(C)CC5)cc4)nc32)c1 [compound 100]
